The source made the active and inactive calls. The rule behind the calls is not given here.
Tests used:
[1] = molecular target: B-cell receptor CD22 (Homo sapiens) (UniProt P20273); assay: Binding affinity against CD22 adhesion protein;no effect
[2] = molecular target: B-cell receptor CD22 (Homo sapiens) (UniProt P20273); assay: Binding affinity against CD22 adhesion protein in ELISA competition assay;no effect
[3] = molecular target: B-cell receptor CD22 (Homo sapiens) (UniProt P20273); assay: Binding affinity against CD22 adhesion protein; no effect

Chain of B-cell receptor CD22 (Homo sapiens) (P20273 whole entry): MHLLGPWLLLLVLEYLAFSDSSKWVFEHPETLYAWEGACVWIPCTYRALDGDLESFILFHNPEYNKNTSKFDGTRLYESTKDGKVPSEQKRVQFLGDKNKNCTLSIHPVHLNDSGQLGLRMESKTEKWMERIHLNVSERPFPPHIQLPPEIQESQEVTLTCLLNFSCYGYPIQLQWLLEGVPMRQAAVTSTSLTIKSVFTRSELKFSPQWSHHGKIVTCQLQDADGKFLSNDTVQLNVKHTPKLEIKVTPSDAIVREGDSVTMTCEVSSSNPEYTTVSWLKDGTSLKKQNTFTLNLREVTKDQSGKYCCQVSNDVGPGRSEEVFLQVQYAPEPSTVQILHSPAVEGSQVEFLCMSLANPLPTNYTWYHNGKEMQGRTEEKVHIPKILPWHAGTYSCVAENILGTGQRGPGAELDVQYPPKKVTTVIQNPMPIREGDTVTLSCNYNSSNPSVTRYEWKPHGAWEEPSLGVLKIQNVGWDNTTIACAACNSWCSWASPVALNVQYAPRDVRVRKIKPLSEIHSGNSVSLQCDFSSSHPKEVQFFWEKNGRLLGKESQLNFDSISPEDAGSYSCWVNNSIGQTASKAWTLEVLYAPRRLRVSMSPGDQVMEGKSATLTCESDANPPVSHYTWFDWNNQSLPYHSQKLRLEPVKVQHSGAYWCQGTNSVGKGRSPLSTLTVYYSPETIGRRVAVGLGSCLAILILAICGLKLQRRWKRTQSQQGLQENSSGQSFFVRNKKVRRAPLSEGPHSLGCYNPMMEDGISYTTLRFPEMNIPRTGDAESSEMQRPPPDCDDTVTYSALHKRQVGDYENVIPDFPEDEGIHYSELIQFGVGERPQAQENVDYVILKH

Activity [1] | also measured | Structure (SMILES)
inactive | – | CC(=O)N[C@@H]1[C@@H](Oc2ccccc2[N+](=O)[O-])O[C@@H](COS(=O)(=O)O)[C@H](O)[C@@H]1O[C@@H]1O[C@@H](COS(=O)(=O)O)[C@H](O)[C@H](O)[C@@H]1O
– | Activity [2]: inactive | CC(=O)N[C@@H]1[C@@H](O)C[C@](OC[C@H]2O[C@@H](Oc3ccc([N+](=O)[O-])cc3)[C@H](NC(C)=O)[C@@H](O[C@@H]3O[C@H](COS(=O)(=O)O)[C@H](O)[C@H](O)[C@H]3O)[C@@H]2O)(C(=O)O)O[C@H]1C(O)C(O)CO (stereo partly drawn)
– | Activity [3]: inactive | O=C(CBr)OCC1OC(Br)C(OC(=O)c2ccccc2)C(OC(=O)c2ccccc2)C1OC(=O)c1ccccc1 (stereo not drawn)
inactive | – | CC(=O)N[C@@H]1[C@@H](Oc2ccccc2[N+](=O)[O-])O[C@@H](CO)[C@H](O)[C@@H]1O[C@@H]1O[C@@H](CO)[C@H](O)[C@H](OS(=O)(=O)O)[C@@H]1O
– | Activity [2]: inactive | CC(=O)N[C@@H]1[C@@H](O)C[C@](OC[C@H]2O[C@@H](Oc3ccc([N+](=O)[O-])cc3)[C@H](NC(C)=O)[C@@H](O[C@@H]3O[C@H](CO)[C@H](O)[C@H](O)[C@H]3O)[C@@H]2O)(C(=O)O)O[C@H]1C(O)C(O)CO (stereo partly drawn)
inactive | – | CC(=O)OCC1OC(Br)C(OC(C)=O)C(OC(=O)CCl)C1OC(C)=O (stereo not drawn)
inactive | – | CC(=O)N[C@@H]1[C@@H](O)C[C@](OC[C@H]2O[C@H](Oc3ccccc3[N+](=O)[O-])[C@H](NC(C)=O)[C@@H](O[C@@H]3O[C@H](COS(=O)(=O)O)[C@H](O)[C@H](O)[C@H]3O)[C@H]2O)(C(=O)O)O[C@H]1C(O)C(O)CO (stereo partly drawn)
inactive | – | CC(=O)N[C@@H]1[C@@H](Oc2ccccc2[N+](=O)[O-])O[C@@H](CO)[C@H](O)[C@@H]1O[C@@H]1O[C@@H](COS(=O)(=O)O)[C@H](O)[C@H](O)[C@@H]1O

Source: ChEMBL document CHEMBL1150017, “A convenient synthesis of sulfated and sialyl oligosaccharides as potential ligands for CD22 adhesion protein” (Bioorg Med Chem Lett, 1995)
